Several values for one entry are separate records, joined by “and”; a condition that tells them apart may be missing. Identical values can stand only once. Square brackets hold non-standard residues; d marks the D form. Peptide text beside a SMILES is read from it.
What was measured:
[1] = molecular target: human cGAS (hcGAS) (Homo sapiens, UniProt Q8N884); assay: biochemical; details: MST
Protocol: The binding ability of XQ2 with Cy5-ISD and XQ2 with human cGAS were tested using NanoTemper Monolith NT.115 instrument (20% LED, 40% MST power) at 25 °C. Serial dilutions of XQ2 were mixed with 10 nM of Cy5-ISD or 100 nM of fluorescent labeled hcGAS, incubated for 10 min at room temperature in HEPES buffer (50 mM HEPES, pH 7.5, 200 mM NaCl, 20 mM MgCl2, 0.05% Tween 20) with or without 1 mM ATP and 0.5 mM GTP or 2 M (NH4)2SO4 (Sigma-Aldrich). Excitation was optimized by varying the power to obtain fluorescence intensities above 200 counts. Data were analyzed by using the MO.Affinity Analysis software.

[2] = molecular target: T1, hcGAS-FL (D191R) mutant + FAM-ISD (Homo sapiens, UniProt Q8N884, D191R); assay: Fluorescence polarization competition of FAM-ISD binding
T1 construct: The gene encoding full-length human cGAS (hcGAS-FL); 6xHis-SUMO (N, cleaved yes); made in house; host or cells: Escherichia coli BL21 (DE3)
From the text: Samples were dispensed in 30 μ L final volumes per well into a 384-well flat-bottom black plate (Corning 3575). The polarization was detected by a microplate reader (BioTek Synergy H1) with a fluorescence polarization filter cube (excitation wavelength: 485 ± 10 nm; emission wavelength: 528 ± 10 nm) immediately.

[3] = test system: HSV-1-infected THP1 cells; assay: HSV-1 cytopathogenic effect, CCK-8 viability; assay type: cell-based, human; details: for cell viability, CCK-8, Fig. 5e: XQ2 10 μM
Protocol: Cell viability was measured by cell counting kit-8 (TargetMol) according to the manufacturer’s instructions.

[4] = Pharmacokinetics after intravenous administration; details: C57BL/6, mouse, whole blood, 10 mg/kg
Protocol: Whole blood samples were collected in EDTA-K2 surface-coated tubes at 0.083, 0.25, 0.5, 1, 2, 5, 7, 24 h post administration. The results were analyzed by LC-MS.

[5] = test system: HSV-1-infected WT mice; assay: HSV-1 infection of WT mice (serum ELISA, brain qPCR, IHC); assay type: in vivo, mouse; set-up: brain HSV-1 mRNA, qPCR, Fig. 6d / brain HSV-1(UL5) mRNA, qPCR, Fig. 6d: unit not given here
Protocol: Fig. 6 XQ2B attenuates the host innate antiviral response in vivo. a Chemical structure of XQ2 and XQ2B. b, c WT mice (n = 7) were injected intravenously with DMSO or XQ2B (10 mg/kg) for 3 h, and then administrated intravenously with HSV-1 at 1 × 10^7 pfu per mouse for 6 h. Serum from mice was collected for ELISA analysis of the levels of IFN-β (b) and CXCL10 (c). p = 0.0013 (b); p = 0.0175 (c). d Brains from mice (n = 6) in (b, c) were collected for qPCR analysis of the induction of HSV-1 and HSV-1(UL5) mRNA. p = 0.0287 (HSV-1); p = 0.0136 (HSV1-UL5). e Brains from mice in (b, c) were collected for immunohistochemistry (IHC) analysis with an anti-HSV-1 antibody. Tissue sections were visualized using microscopy. Scale bar, 25 μm. Data are representative of two independent experiments in (b–e). […] Source data are provided as a Source Data file.
The indicated cells were stimulated with either ISD (Sangon Biotech), HSV-1 (Provided by Dr. Zhengfan Jiang), HSV60mer (Sangon Biotech), SATE-cddA[70], 2’3’-cGAMP (Invivogen, Cat# tlrl-nacga23-1), ADU-S100 (MedChemExpress, Cat# HY-12885A) or Poly(I:C) (Invivogen, Cat# tlrl-pic) after XQ2 or XQ2B treatment. Total RNA was isolated from indicated cells that incubated with the drugs for indicated time or mice tissues by using NucleoZOL reagent (MACHEREY-NAGEL) according to the manufacturer’s instructions. The quantifications of mRNA levels were carried out by real-time PCR using a PerfectStart® Uni RT&qPCR Kit (TransGen Biotech) on the QuantStudio 5 qPCR machine (Applied Biosystems). Samples were carried out in triplicate and the target CT values were normalized to GAPDH CT values. Primers of qPCR used in this study can be found in Supplementary Table S2.
THP1 cells were seeded into 96-well plates, and cell culture supernatants were collected and analyzed by ELISA kits for human IFNβ levels (R&D Systems, Cat# DY814-05) and human CXCL10 levels (R&D Systems, Cat# DY266-05) according to the manufacturer’s instructions. Mice serum was collected and analyzed by ELISA kits for mouse IFNβ levels (R&D Systems, Cat# DY8234-05) and mouse CXCL10 levels (R&D Systems, Cat# DY466-05) according to the manufacturer’s protocols.
Tissues were resected and fixed successively in 4% paraformaldehyde, and embedded in paraffin according to the standard procedure, and then sectioned into 10-μm slices and placed on positively charged microscope slides. Sections of the brain were subjected to immunohistochemical (IHC) staining with an anti-HSV-1 antibody (Abcam, 1:100) and HRP-conjugated anti-rabbit IgG antibody (Cell Signaling, Cat# 7074, 1:200) according to standard procedures. Sections of the heart, stomach, tongue, kidney and muscle were stained with hematoxylin and eosin. Tissue sections were visualized using an Olympus IX73 microscope (20× Objective).

[6] = XQ2B 10 mg/kg i.v., individual mice

Chain of human cGAS (hcGAS) (Q8N884 whole entry): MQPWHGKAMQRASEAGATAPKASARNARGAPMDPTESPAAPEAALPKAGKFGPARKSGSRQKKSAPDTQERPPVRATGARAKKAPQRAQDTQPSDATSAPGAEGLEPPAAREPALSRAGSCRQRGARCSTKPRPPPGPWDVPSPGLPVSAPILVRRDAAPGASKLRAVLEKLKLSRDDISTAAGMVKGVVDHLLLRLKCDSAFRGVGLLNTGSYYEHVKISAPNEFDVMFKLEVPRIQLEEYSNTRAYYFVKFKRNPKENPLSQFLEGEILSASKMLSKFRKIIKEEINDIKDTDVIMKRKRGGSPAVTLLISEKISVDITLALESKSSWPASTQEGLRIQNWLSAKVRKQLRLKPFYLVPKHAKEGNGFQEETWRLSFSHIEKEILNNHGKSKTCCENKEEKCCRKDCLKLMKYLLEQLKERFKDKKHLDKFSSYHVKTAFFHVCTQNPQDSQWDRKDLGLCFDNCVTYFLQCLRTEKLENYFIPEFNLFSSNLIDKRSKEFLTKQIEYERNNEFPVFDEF
T1 sequence (Q8N884 whole entry D191R): as the sequence (Q8N884 whole entry) above, with D191R counted along it

CC(C)C[C@@H]1NC(=O)[C@H](CCCNC(=N)N)NC(=O)[C@H](C(C)C)NC(=O)[C@@H]2CCCN2C(=O)[C@@H](Cc2ccccc2)NC(=O)[C@H](CC(C)C)NC(=O)[C@H](CCCNC(=N)N)NC(=O)[C@H](C(C)C)NC(=O)[C@H](C)NC(=O)[C@@H](Cc2ccccc2)NC1=O [XQ2, Cyclo (LfAVRLfPVR)] (cyclo(L[dF]AVRL[dF]PVR))
Kd ([1]; absence of ATP/GTP and (NH4)2SO4 (Mock)): 45.3 ± 26.9 µM | Kd ([1]; in the presence of (NH4)2SO4 (2M)): 1.8 ± 0.6 µM | Kd ([1]; in the presence of ATP (1mM) and GTP (0.5mM)): 4.5 ± 1.6 µM | inhibition of dsDNA binding to hcGAS-FL (D191R), FP [2]: markedly reduced | HSV-1 cytopathogenic effect in THP1 cells ([3]; 10 μM): HSV-1 produced marked cytopathogenic effect (CPE) in THP1 cells in the presence of XQ2 | cell viability, CCK-8, Fig. 5e ([3]; Ctl): 102.857 and 110.714 and 112.321 | cell viability, CCK-8, Fig. 5e ([3]; HSV-1 1×10^4 pfu): 101.071 and 114.286 and 103.571 | cell viability, CCK-8, Fig. 5e ([3]; HSV-1 1×10^5 pfu): 37.5 and 43.3929 and 38.0357 | cell viability, CCK-8, Fig. 5e ([3]; HSV-1 2×10^4 pfu): 57.3214 and 52.5 and 50.7143 | cell viability, CCK-8, Fig. 5e ([3]; HSV-1 5×10^4 pfu): 52.8571 and 47.6786 and 46.7857

CC(C)C[C@@H]1NC(=O)[C@H](CCCNC(=N)N)NC(=O)[C@H](C(C)C)NC(=O)[C@@H]2CCCN2C(=O)[C@@H](Cc2ccccc2)NC(=O)[C@H](CC(C)C)NC(=O)[C@H](CCCNC(=N)N)NC(=O)[C@H]([C@@H](C)O)NC(=O)[C@H](C)NC(=O)[C@@H](Cc2ccccc2)NC1=O [XQ2B] (cyclo([dF]ATRL[dF]PVRL))
AUC(0-inf) [4]: 157 µg·h/mL | AUC(0-t) [4]: 135 µg·h/mL | Cmax [4]: 105 µg/mL | MRT last [4]: 72 min | Tmax [4]: 4.98 min | Vd [4]: 0.095 L/kg | clearance [4]: 1.18 mL/min/kg | production of IFN-β and CXCL10 upon HSV-1 infection in mice ([5]; 10 mg/kg intravenous): significantly impaired the production of IFN-β and CXCL10 upon HSV-1 infection in mice | virus infection in brain tissues of mice ([5]; 10 mg/kg intravenous): promoted virus infection in the brain tissues of mice | serum IFN-β, ELISA, Fig. 6b ([5]; XQ2B 10 mg/kg i.v. 3 h before HSV-1 1 × 10^7 pfu i.v., 6 h, individual mice): 234.609 and 247.685 and 151.05 and 229.558 and 128.472 and 521.967 and 514.758 | serum CXCL10, ELISA, Fig. 6c ([5]; XQ2B 10 mg/kg i.v., HSV-1 6 h, individual mice): 2266.42 and 1272.19 and 1516.42 and 1969.73 and 1635.92 and 1666.83 and 2034.41 | brain HSV-1(UL5) mRNA, qPCR, Fig. 6d [5, 6]: 2.362 and 11.4426 and 5.671 and 29.1839 and 18.1733 and 12.9008 | brain HSV-1 mRNA, qPCR, Fig. 6d [5, 6]: 4.055 and 17.5547 and 15.5667 and 41.0988 and 9.75 and 4.86

Reference: paper PMC10545747, “Development of cyclopeptide inhibitors of cGAS targeting protein-DNA interaction and phase separation” (Nature Communications, 2023)
